According to ChEMBL document CHEMBL1201862, “PubChem BioAssay data set” (2004):
The source made the active and inactive calls.

Key:
[1] = molecular target: T1, Bcl-2-like protein 10 (Homo sapiens, UniProt Q9HD36); test: displacers of TR3 peptide from Bcl-B, primary screen, selectivity assay for Bfl-1 inhibitor project, biochemical, fluorescence polarization, FITC-TR3 peptide (AID 748);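 also: fluorescence polarization from a fluorescein-labelled TR3 peptide binding purified Bcl-B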
T1 sequence (Q9HD36 whole entry): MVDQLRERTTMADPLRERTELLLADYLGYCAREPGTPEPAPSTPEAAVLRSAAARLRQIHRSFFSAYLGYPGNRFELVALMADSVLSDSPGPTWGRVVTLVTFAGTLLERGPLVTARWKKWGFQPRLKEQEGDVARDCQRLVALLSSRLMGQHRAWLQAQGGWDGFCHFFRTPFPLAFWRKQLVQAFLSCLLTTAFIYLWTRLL

[2] = test system: H9c2; test: cells; type: functional, cell-based; conditions: Rattus norvegicus, H9c2, Myocardium;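 also: confirmatory concentration-response retest of ultra-high-throughput screening hits for modulation of myocardial damage; cell death induced by hydrogen peroxide oxidative stress; compound pretreatment for 60 min then peroxide exposure for 2 h; potency is for protecting the cells against peroxide damage rather than for killing them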
[3] = molecular target: Nonstructural protein 1 (Influenza A virus, UniProt Q194T2); type: functional, Influenza A virus (A/California/07/2009(H1N1))
[4] = molecular target: T2, Hexokinase HKDC1 (Homo sapiens, UniProt Q2TB90); test: HKDC1 hexokinase inhibitors, dose response, biochemical, W721R variant (AID 504729); type: functional
T2 sequence (Q2TB90 whole entry): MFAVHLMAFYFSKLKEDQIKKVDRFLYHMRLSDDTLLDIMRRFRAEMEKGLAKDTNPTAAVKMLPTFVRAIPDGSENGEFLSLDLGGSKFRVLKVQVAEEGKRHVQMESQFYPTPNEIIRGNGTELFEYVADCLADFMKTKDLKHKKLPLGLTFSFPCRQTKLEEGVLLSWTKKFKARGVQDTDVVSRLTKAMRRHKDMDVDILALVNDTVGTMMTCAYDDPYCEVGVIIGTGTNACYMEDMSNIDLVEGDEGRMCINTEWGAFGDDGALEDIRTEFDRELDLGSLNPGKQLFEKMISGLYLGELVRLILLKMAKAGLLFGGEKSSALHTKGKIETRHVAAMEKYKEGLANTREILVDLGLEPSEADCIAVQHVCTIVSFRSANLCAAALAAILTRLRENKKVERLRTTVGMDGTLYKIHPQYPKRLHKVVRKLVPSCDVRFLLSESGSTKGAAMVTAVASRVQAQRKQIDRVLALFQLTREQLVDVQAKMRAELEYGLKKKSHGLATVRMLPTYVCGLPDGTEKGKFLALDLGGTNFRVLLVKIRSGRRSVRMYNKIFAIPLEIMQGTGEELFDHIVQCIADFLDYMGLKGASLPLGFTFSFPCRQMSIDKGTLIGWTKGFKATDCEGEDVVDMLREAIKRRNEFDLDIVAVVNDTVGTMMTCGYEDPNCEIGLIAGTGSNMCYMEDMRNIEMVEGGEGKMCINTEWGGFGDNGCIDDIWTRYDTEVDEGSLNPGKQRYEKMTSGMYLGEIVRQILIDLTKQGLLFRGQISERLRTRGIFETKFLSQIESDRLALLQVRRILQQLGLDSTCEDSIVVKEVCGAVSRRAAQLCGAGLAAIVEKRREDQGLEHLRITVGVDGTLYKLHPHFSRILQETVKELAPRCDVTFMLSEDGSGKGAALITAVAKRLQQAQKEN

[5] = molecular target: T3, RNA-binding protein pos-1 (Caenorhabditis elegans, UniProt G5EF15); test: inhibitors of POS-1/mex-3 RNA binding, dose response, biochemical, fluorescence polarization (AID 1964);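 also: purified POS-1 fused to maltose binding protein made in E. coli; potency of compounds blocking POS-1 binding to fluorescent RNA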
T3 sequence (G5EF15 whole entry): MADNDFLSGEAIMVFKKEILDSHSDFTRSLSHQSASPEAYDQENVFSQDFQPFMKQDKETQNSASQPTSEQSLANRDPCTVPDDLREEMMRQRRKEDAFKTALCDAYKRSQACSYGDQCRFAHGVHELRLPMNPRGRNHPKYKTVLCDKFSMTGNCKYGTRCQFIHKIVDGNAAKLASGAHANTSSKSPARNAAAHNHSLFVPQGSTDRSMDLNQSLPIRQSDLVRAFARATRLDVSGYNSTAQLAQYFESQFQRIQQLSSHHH

[6] = molecular target: Glucose-6-phosphate 1-dehydrogenase (Homo sapiens, UniProt P11413); test: human G6PD enzyme inhibitors, dose response, selectivity assay for P. falciparum G6PD inhibitor project, biochemical, fluorescence (AID 504792); type: functional
[7] = molecular target: T4, Zinc finger protein mex-5 (Caenorhabditis elegans, UniProt Q9XUB2); test: MEX-5/TCR-2 RNA interaction inhibitors, dose response, biochemical, C. elegans, fluorescence polarization (AID 1960)
T4 sequence (Q9XUB2 whole entry): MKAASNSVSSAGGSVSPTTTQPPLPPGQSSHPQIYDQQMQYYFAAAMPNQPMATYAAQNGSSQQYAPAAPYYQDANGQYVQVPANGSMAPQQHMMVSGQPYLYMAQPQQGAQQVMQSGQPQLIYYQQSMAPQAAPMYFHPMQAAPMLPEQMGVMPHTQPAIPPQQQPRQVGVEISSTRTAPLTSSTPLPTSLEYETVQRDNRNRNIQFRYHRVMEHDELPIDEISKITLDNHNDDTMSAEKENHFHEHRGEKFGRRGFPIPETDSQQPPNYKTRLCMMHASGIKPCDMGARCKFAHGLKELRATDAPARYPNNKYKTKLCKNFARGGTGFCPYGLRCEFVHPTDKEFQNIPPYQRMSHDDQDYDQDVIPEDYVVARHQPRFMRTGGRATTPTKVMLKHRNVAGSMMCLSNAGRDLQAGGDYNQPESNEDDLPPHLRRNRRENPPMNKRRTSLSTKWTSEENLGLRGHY

[8] = molecular target: T5, Apoptotic protease-activating factor 1 (Homo sapiens, UniProt O14727); type: functional
T5 sequence (O14727 whole entry): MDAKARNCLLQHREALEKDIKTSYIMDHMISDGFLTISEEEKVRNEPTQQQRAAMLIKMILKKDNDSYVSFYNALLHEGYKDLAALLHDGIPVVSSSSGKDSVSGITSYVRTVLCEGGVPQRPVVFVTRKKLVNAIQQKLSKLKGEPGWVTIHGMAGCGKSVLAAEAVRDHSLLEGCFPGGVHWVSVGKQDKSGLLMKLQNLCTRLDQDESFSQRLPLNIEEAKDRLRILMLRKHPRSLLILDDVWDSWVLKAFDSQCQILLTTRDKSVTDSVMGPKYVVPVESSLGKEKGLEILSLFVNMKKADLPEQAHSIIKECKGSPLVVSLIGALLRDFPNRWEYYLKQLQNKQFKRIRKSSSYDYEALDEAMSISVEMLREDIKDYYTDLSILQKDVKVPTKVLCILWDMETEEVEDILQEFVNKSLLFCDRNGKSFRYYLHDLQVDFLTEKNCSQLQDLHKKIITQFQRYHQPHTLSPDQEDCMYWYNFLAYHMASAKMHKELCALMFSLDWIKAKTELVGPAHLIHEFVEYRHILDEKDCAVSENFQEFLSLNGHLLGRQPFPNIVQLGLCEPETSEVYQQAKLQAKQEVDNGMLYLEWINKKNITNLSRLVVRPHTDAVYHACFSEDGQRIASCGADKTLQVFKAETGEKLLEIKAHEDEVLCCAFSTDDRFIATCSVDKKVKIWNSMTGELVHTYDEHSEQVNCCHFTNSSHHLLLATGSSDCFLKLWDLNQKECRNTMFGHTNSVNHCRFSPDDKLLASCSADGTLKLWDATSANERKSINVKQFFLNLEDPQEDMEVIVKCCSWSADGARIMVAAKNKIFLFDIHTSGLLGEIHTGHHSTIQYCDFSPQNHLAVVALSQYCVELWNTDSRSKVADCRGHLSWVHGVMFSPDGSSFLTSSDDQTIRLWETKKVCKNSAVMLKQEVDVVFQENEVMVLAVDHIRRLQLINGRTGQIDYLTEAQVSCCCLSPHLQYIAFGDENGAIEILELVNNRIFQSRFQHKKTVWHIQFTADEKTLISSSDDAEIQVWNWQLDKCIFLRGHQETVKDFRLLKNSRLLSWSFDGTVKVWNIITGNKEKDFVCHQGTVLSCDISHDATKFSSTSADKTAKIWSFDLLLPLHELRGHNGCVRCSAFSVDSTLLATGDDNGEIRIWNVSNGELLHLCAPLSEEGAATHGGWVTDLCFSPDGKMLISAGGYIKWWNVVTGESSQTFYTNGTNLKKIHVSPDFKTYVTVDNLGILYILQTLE

[9] = molecular target: T6, Ubiquitin-conjugating enzyme E2 N (Homo sapiens, UniProt P61088); type: functional;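 also: Dose-response confirmation in a TR-FRET assay detecting UBC13-driven polyubiquitin chain formation, inhibition measured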
T6 sequence (P61088 whole entry): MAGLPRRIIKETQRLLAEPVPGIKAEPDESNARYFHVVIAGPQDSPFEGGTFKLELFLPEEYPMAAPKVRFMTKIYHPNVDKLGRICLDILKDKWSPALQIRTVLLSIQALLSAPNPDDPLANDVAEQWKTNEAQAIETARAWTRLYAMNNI

[10] = test system: Streptococcus; test: Group A Streptococcus viability loss, dose response, counter-screen for streptokinase expression inhibitor project, luminescence, BacTiterGlo (AID 1915); type: functional, organism-based;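 also: potency for reduction of bacterial viability or growth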
[11] = molecular target: Eukaryotic translation initiation factor 4E (Mus musculus, UniProt P63073); test: eIF4E–eIF4G protein interaction inhibitors, dose response, biochemical, TR-FRET (AID 855); type: functional;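 also: potency for disrupting eIF4E binding to eIF4GI seen as loss of FRET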
[12] = molecular target: DNA dC->dU-editing enzyme APOBEC-3G (Homo sapiens, UniProt Q9HC16); test: Dose Response confirmation of small molecule APOBEC3G DNA Deaminase Inhibitors via a fluorescence-based single-stranded DNA deaminase assay. [Related pubchem assays (depositor defined):AID493012, AID493028]; type: functional
[13] = test system: Streptococcus sp. 'group A'; test: growth inhibition of control SK(-) GAS strain, dose response, counter-screen for streptokinase expression inhibitor project, luminescence, kanamycin, BacTiterGlo, confirmation (AID 1900); type: functional, organism-based
[14] = molecular target: DNA dC->dU-editing enzyme APOBEC-3A (Homo sapiens, UniProt P31941); test: APOBEC3A DNA deaminase inhibitors, dose response, biochemical (AID 504722); type: functional
[15] = molecular target: T7, Streptokinase A (Streptococcus pyogenes serotype M1, UniProt P10520); test: S. pyogenes streptokinase expression inhibitors, potency, dose response, plasminogen activation absorbance, OD405 (AID 1914); type: functional, Streptococcus pyogenes M1 GAS;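 also: secreted streptokinase activity via plasminogen activation per viability signal from cell pellet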
T7 sequence (P10520 whole entry): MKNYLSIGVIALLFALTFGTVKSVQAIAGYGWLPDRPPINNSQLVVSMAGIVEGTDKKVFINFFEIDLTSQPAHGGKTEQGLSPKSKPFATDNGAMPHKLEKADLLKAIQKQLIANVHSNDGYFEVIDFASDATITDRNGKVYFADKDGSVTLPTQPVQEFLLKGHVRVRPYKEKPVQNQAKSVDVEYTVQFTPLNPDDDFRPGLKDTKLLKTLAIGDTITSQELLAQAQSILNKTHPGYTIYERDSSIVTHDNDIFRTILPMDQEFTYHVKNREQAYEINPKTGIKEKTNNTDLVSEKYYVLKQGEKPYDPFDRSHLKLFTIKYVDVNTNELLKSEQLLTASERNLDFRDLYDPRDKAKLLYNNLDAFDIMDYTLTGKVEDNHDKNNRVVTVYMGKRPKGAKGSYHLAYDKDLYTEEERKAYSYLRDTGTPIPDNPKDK

[16] = molecular target: T8, Alkaline phosphatase, tissue-nonspecific isozyme (Homo sapiens, UniProt P05186); test: human TNAP enzyme inhibitors, SAR follow-up, biochemical, luminescent, dose response (AID 1056)
T8 sequence (P05186 whole entry): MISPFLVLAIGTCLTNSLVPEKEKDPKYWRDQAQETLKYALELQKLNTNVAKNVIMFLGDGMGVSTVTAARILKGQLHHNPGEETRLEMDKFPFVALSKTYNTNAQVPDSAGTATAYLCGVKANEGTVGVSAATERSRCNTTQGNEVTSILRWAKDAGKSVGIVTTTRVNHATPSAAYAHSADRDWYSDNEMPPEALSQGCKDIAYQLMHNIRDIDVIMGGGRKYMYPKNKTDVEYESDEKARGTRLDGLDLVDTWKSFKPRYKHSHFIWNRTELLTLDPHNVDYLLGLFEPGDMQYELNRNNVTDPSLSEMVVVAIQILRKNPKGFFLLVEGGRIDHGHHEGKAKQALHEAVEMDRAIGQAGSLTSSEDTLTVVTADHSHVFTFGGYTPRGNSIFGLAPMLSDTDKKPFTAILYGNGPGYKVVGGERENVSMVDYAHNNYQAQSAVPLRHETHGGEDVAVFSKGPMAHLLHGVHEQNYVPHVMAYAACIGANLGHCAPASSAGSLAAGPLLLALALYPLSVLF

[17] = molecular target: Glyceraldehyde-3-phosphate dehydrogenase (Homo sapiens, UniProt P04406)
Chain of Glyceraldehyde-3-phosphate dehydrogenase (P04406 whole entry): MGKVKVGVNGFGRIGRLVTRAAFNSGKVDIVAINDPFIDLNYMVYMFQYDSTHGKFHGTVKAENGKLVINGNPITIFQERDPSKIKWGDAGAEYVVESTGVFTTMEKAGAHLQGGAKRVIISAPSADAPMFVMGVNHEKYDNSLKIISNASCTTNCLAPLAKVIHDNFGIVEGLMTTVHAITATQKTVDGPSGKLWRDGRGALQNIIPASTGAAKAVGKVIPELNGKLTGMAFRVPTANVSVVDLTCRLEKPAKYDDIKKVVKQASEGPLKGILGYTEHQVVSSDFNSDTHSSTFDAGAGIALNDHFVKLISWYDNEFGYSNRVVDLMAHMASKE

Chain of DNA dC->dU-editing enzyme APOBEC-3A (P31941 whole entry): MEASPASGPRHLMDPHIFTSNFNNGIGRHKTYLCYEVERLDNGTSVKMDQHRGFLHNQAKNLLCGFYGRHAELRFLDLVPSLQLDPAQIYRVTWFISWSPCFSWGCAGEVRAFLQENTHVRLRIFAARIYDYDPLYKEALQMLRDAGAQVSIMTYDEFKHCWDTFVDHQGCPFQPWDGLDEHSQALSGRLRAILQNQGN
Chain of DNA dC->dU-editing enzyme APOBEC-3G (Q9HC16 whole entry): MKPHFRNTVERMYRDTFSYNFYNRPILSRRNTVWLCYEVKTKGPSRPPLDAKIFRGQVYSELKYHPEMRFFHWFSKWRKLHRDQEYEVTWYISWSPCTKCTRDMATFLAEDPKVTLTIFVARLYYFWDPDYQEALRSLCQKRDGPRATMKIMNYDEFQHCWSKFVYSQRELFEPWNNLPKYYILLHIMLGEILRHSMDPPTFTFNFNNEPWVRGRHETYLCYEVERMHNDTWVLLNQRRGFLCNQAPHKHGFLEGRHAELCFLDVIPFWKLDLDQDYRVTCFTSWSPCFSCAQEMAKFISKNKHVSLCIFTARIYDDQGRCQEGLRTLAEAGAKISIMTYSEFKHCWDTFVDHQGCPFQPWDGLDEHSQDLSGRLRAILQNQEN
Chain of Glucose-6-phosphate 1-dehydrogenase (P11413 whole entry): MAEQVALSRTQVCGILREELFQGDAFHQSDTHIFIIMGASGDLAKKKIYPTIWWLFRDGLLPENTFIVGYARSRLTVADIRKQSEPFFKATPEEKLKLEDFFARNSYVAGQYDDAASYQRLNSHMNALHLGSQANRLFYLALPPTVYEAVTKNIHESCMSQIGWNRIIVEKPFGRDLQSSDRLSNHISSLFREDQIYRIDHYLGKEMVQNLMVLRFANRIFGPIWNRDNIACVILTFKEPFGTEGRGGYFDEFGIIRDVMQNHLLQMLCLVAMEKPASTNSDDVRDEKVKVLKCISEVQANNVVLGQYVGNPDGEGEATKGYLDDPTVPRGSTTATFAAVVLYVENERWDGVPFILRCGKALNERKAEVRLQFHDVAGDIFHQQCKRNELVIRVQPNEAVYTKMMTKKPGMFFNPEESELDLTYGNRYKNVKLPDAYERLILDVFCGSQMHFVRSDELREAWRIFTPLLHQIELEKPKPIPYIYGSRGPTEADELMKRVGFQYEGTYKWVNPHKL
Chain of Eukaryotic translation initiation factor 4E (P63073 whole entry): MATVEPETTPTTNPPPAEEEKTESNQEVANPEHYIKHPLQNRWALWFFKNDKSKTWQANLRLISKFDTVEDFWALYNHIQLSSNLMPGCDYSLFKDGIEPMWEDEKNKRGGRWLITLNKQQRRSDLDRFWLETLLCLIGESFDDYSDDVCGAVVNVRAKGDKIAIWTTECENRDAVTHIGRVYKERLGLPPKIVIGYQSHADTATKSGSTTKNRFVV
Chain of Nonstructural protein 1 (Q194T2 whole entry): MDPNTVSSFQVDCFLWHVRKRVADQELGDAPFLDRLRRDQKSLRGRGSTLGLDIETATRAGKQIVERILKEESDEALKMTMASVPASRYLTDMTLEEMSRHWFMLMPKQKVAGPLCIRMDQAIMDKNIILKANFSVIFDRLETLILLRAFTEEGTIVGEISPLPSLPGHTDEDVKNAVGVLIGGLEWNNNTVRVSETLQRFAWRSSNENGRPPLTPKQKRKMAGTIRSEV

SMILES: C[C@@H](C(=O)Nc1nc(-c2ccccn2)cs1)N1C(=O)C2CCCCC2C1=O (stereo not given in full)
- IC50 [1]: 96 µM (inactive)
- IC50 [2]: 8.43 µM (active)
- IC50 [3]: 8.38 µM (active)

SMILES: Cc1ccccc1N1C(=O)c2sc3nc4c(c(=O)n3c2C1=O)CCC4
- IC50 [1]: 54.9 µM (inactive)

SMILES: C=CCN1C=C2C(=O)C(C)(OC(=O)CCC(=O)OC)C(=O)C(Br)=C2C=C1c1ccc(OC)cc1 (stereo not given)
- IC50 [4]: 24.6 µM (inactive)
- EC50 [5]: 50.2 µM (active)
- IC50 [6]: 29.9 µM (inactive)
- EC50 [7]: 42.8 µM (active)
- IC50 [8]: 32.6 µM (active)

SMILES: CC(C)CC(C(=O)NC(C)(C)C)N(Cc1cccs1)C(=O)c1snc(C(N)=O)c1N (stereo not given)
- IC50 [9]: > 20 µM (inactive)

SMILES: NC(=S)N=Nc1c(O)n(Cc2ccc(F)cc2)c2ccccc12
- IC50 [9]: > 20 µM (inactive)

SMILES: COC(=O)c1ccc(CSc2nnc(S)s2)o1
- EC50 [10]: 9.6 µM (active)
- IC50 [11]: > 64 µM (inactive)
- IC50 [12]: 5.99 µM (active)
- EC50 [13]: 5.69 µM (active)
- IC50 [14]: > 100 µM (inactive)
- EC50 [15]: 5.61 µM (active)

SMILES: CC(C)CNC(=O)c1cc(-c2cc(F)c(Cl)cc2Cl)n[nH]1
- IC50 [16]: 0.27 µM (active)
- IC50 [17]: > 10 µM (inconclusive)

SMILES: CC(C)Cn1c(S)nnc1-c1cccc(S(=O)(=O)N2CCOCC2)c1
- IC50 [12]: 5.37 µM (active)
- IC50 [14]: > 100 µM (inactive)

SMILES: Sc1nnc(-c2ccccn2)n1/N=C/c1c(Cl)cccc1Cl
- IC50 [12]: 4.67 µM (active)
- IC50 [14]: > 100 µM (inactive)

SMILES: COc1ccc(OC)c(CNc2cnc3ccccc3c2)c1
- IC50 [16]: > 100 µM (inactive)
- IC50 [17]: > 100 µM (not active)
